The source of these data is patent US20100204203A1, “Chemical Compounds 637: Pyridopyrimidinediones as PDE4 Inhibitors” (priority 2007, published 2010).

For assay [1], the target named is T1, recombinant Human Phosphodiesterase B2 (PDE4B2) (Homo sapiens, UniProt Q07343). Kind of assay: Human Phosphodiesterase B2 Alpha Screen Assay. Particulars: Alpha Screen cAMP kit; 15 min preincubation, 60 min reaction at room temperature; Xlfit model 205; read-out: PDE4B2 pIC50 (converted). Type of assay: biochemical. Here is the method: Human Phosphodiesterase B2 Alpha Screen Assay
T1 sequence (Q07343 1-564 isoform Q07343-2): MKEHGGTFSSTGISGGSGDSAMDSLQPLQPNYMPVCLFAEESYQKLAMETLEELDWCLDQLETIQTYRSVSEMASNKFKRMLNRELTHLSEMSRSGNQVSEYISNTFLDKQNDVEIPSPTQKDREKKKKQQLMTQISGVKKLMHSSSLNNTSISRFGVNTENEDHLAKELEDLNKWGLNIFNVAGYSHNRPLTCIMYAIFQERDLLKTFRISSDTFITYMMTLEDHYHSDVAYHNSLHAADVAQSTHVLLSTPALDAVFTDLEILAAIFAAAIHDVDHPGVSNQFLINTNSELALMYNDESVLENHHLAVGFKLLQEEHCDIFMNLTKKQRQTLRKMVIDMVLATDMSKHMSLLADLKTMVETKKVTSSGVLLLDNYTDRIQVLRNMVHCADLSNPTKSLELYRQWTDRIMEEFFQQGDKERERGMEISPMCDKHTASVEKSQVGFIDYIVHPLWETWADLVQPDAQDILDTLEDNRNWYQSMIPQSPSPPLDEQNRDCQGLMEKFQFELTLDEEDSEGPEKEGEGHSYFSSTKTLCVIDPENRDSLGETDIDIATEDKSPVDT
The assay uses recombinant Human Phosphodiesterase B2 (PDE4B2) produced in house (PrAZL0133), stored at −20° C. The substrate uses cAMP, part of the Alpha Screen cAMP kit (Perkin Elmer, Cat# 6760625M), stored at 4° C. The Alpha Screen kit also includes biotinylated cAMP, acceptor and donor beads.
The assay additions were as follows: Test compounds and controls were added to white 384-well flat-bottom plates (Greiner, Cat#781075), 0.2 μl in 100% DMSO, followed by 10 μl PDE4B2 in reaction buffer. The reaction buffer constitution was: 50 mM Tris (pH 7.5), 8.3 mM MgCl2, 1.7 mM EGTA and 0.01% (w/v) Brij®35. The enzyme and the compounds were incubated at room temperature for 15 minutes. Then 10 μl cAMP in reaction buffer was added. The assay was stopped after 60 minutes incubation at room temperature by adding 10 μl acceptor beads in detection buffer with 40 mM EDTA. The detection buffer constitution was: 5 mM Tris (pH 7.5), 0.1% (w/v) BSA and 0.1% (v/v) Tween 20. This addition followed by an addition of 10 μl donor beads in detection buffer, with biotinylated cAMP. The plates were then incubated, dark at room temperature, for 5 hours followed by measurement on a Fusion™-α analyser. pIC50 values (presented in Table 14) were determined using Xlfit curve fitting using model 205.

For assay [2], the target named is T1, recombinant Human Phosphodiesterase B2 (PDE4B2). Kind of assay: Human Phosphodiesterase B2 Radiometric Assay (yttrium silicate SPA beads, [3H]cyclic AMP). It counts as biochemical. Particulars: recombinant human PDE4B2, radiometric SPA assay, 8 nM [3H]cyclic AMP; read-out: PDE4B2 pIC50 (converted). The procedure, abridged:
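Compounds were preincubated 30 min at 30 °C with 0.1 mg/mL PDE4B2 in 50 mM HEPES pH 7.5, 8.3 mM MgCl2, 1.7 mM EGTA, 0.01% Brij 35. Then 8 nM [3H]cAMP was added for 20 min, stopped with yttrium silicate SPA beads plus 18 mM ZnSO4 capturing product 5′AMP; pIC50 by curve fitting.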

Turning to `O=C(N[C@H]1CC[C@@H](n2c(=O)c3cc(F)cnc3n(C3CCCC3)c2=O)CC1)c1cn2ccccc2n1` [Example 7, N-[cis-4-(1-cyclopentyl-6-fluoro-2,4-dioxo-1,4-dihydropyrido[2,3-d]pyrimidin-3(2H)-yl)cyclohexyl]imidazo[1,2-a]pyridine-2-carboxamide], in assay [1], the IC50 was 0.631 nM. Regarding `O=C(N[C@H]1CC[C@@H](n2c(=O)c3cc(F)cnc3n(Cc3ccc(F)cc3)c2=O)CC1)c1cn2ccccc2n1` [Example 9, N-{cis-4-[6-fluoro-1-(4-fluorobenzyl)-2,4-dioxo-1,4-dihydropyrido[2,3-d]pyrimidin-3(2H)-yl]cyclohexyl}imidazo[1,2-a]pyridine-2-carboxamide], the IC50 in assay [1] was 3.16 nM. For the compound `CN1CCCN(Cc2ccc(-c3cccc(-n4c(=O)n([C@H]5CC[C@@H](NC(=O)c6cc7ccccc7cn6)CC5)c(=O)c5cc(F)cnc54)c3)cc2)CC1` [Example 359, N-{cis-4-[6-fluoro-1-{4′-[(4-methyl-1,4-diazepan-1-yl)methyl]biphenyl-3-yl}-2,4-dioxo-1,4-dihydropyrido[2,3-d]pyrimidin-3(2H)-yl]cyclohexyl} isoquinoline-3-carboxamide], the IC50 in assay [2] is 0.0251 nM.

On to `CN1CCCN(Cc2ccc(-c3cccc(-n4c(=O)n([C@H]5CC[C@@H](NC(=O)c6nc7ccccc7[nH]c6=O)CC5)c(=O)c5cc(F)cnc54)c3)cc2)CC1` [Example 360, N-{cis-4-[6-fluoro-1-{4′-[(4-methyl-1,4-diazepan-1-yl)methyl]biphenyl-3-yl}-2,4-dioxo-1,4-dihydropyrido[2,3-d]pyrimidin-3(2H)-yl]cyclohexyl}-3-oxo-3,4-dihydroquinoxaline-2-carboxamide], for which, in assay [2], the IC50 is 0.0398 nM. Still for that read-out and setting: in the case of `Cc1cnc(C(=O)N[C@H]2CC[C@@H](n3c(=O)c4cc(F)cnc4n(-c4cccc(-c5ccc(CN6C[C@@H](C)N[C@@H](C)C6)cc5)c4)c3=O)CC2)cn1` [Example 361, N-{cis-4-[1-(4′-{[(3R,5S)-3,5-dimethylpiperazin-1-yl]methyl}biphenyl-3-yl)-6-fluoro-2,4-dioxo-1,4-dihydropyrido[2,3-d]pyrimidin-3(2H)-yl]cyclohexyl}-5-methylpyrazine-2-carboxamide] it was 0.2 nM; in that of `Cc1cc(C)n2nc(C(=O)N[C@H]3CC[C@@H](n4c(=O)c5cc(F)cnc5n(-c5cccc(-c6ccc(CN7CCC(N8CCCCC8)CC7)cc6)c5)c4=O)CC3)cc2n1` [Example 362, N-{cis-4-[1-[4′-(1,4′-bipiperidin-1′-ylmethyl)biphenyl-3-yl]-6-fluoro-2,4-dioxo-1,4-dihydropyrido[2,3-d]pyrimidin-3(2H)-yl]cyclohexyl}-5,7-dimethylpyrazolo[1,5-a]pyrimidine-2-carboxamide], 0.0501 nM. Take `N[C@H]1CC[C@@H](n2c(=O)c3cc(F)cnc3n(-c3cccc(-c4ccc(O)cc4CN4CCNC(=O)CC4)c3)c2=O)CC1` [Example 369, 3-(cis-4-aminocyclohexyl)-6-fluoro-1-{4′-hydroxy-2′-[(5-oxo-1,4-diazepan-1-yl)methyl]biphenyl-3-yl}pyrido[2,3-d]pyrimidine-2,4(1H,3H)-dione]: the IC50 in assay [2] was 6.31 nM. Same read-out and setting: in the case of `Cc1nc2ccccn2c1CN[C@H]1CC[C@@H](n2c(=O)c3cc(F)cnc3n(-c3cccc(-c4ccc(O)cc4CN4CCOCC4)c3)c2=O)CC1` [Example 370, 6-fluoro-1-[4′-hydroxy-2′-(morpholin-4-ylmethyl)biphenyl-3-yl]-3-(cis-4-{[(2-methylimidazo[1,2-a]pyridin-3-yl)methyl]amino}cyclohexyl)pyrido[2,3-d]pyrimidine-2,4(1H,3H)-dione] it was 0.501 nM; in that of `O=c1c2cc(F)cnc2n(-c2cccc(-c3ccc(O)cc3CN3CCCOCC3)c2)c(=O)n1[C@H]1CC[C@@H](NCc2ncc3ccccn23)CC1` [Example 371, 6-fluoro-1-[4′-hydroxy-2′-(1,4-oxazepan-4-ylmethyl)biphenyl-3-yl]-3-{cis-4-[(imidazo[1,5-a]pyridin-3-ylmethyl)amino]cyclohexyl}pyrido[2,3-d]pyrimidine-2,4(1H,3H)-dione], 0.398 nM. Still for that read-out and setting: with `O=c1c2cc(F)cnc2n(-c2cccc(-c3ccc(O)cc3CN3CCCOCC3)c2)c(=O)n1[C@H]1CC[C@@H](NCc2cccn3ccnc23)CC1` [Example 372, 6-fluoro-1-[4′-hydroxy-2′-(1,4-oxazepan-4-ylmethyl)biphenyl-3-yl]-3-{cis-4-[(imidazo[1,2-a]pyridin-8-ylmethyl)amino]cyclohexyl}pyrido[2,3-d]pyrimidine-2,4(1H,3H)-dione] the figure was 0.631 nM; with `O=c1c2cc(F)cnc2n(-c2cccc(-c3ccc(O)cc3CN3CCOCC3)c2)c(=O)n1[C@H]1CC[C@@H](NCc2cccn3ccnc23)CC1` [Example 373, 6-fluoro-1-[4′-hydroxy-2′-(morpholin-4-ylmethyl)biphenyl-3-yl]-3-{cis-4-[(imidazo[1,2-a]pyridin-8-ylmethyl)amino]cyclohexyl} pyrido[2,3-d]pyrimidine-2,4(1H,3H)-dione], 0.158 nM. Same read-out and setting: with `O=c1c2cc(F)cnc2n(-c2cccc(-c3ccc(O)cc3CN3CCOCC3)c2)c(=O)n1[C@H]1CC[C@@H](NCc2ncc3ccccn23)CC1` [Example 374, 6-fluoro-1-[4′-hydroxy-2′-(morpholin-4-ylmethyl)biphenyl-3-yl]-3-{cis-4-[(imidazo[1,5-a]pyridin-3-ylmethyl)amino]cyclohexyl}pyrido[2,3-d] pyrimidine-2,4(1H,3H)-dione] the figure was 0.0631 nM; with `O=C1CCN(Cc2cc(O)ccc2-c2cccc(-n3c(=O)n([C@H]4CC[C@@H](NCc5cn6cc(F)ccc6n5)CC4)c(=O)c4cc(F)cnc43)c2)CCN1` [Example 375, 6-fluoro-3-(cis-4-{[(6-fluoroimidazo[1,2-a]pyridin-2-yl)methyl]amino}cyclohexyl)-1-{4′-hydroxy-2′-[(5-oxo-1,4-diazepan-1-yl)methyl]biphenyl-3-yl}pyrido[2,3-d]pyrimidine-2,4(1H,3H)-dione], 0.0126 nM. For `O=CN1CCCN(Cc2cc(O)ccc2-c2cccc(-n3c(=O)n([C@H]4CC[C@@H](NCc5cn6cc(F)ccc6n5)CC4)c(=O)c4cc(F)cnc43)c2)CC1` [Example 376, 4-({3′-[6-fluoro-3-(cis-4-{[(6-fluoroimidazo[1,2-a]pyridin-2-yl)methyl]amino}cyclohexyl)-2,4-dioxo-3,4-dihydropyrido[2,3-d]pyrimidin-1(2H)-yl]-4-hydroxybiphenyl-2-yl}methyl)-1,4-diazepane-1-carbaldehyde], in assay [2], the IC50 was 0.0398 nM.

As for `O=C1CN(Cc2cc(O)ccc2-c2cccc(-n3c(=O)n([C@H]4CC[C@@H](NCc5cn6cc(F)ccc6n5)CC4)c(=O)c4cc(F)cnc43)c2)CCN1` [Example 377, 6-fluoro-3-(cis-4-{[(6-fluoroimidazo[1,2-a]pyridin-2-yl)methyl]amino}cyclohexyl)-1-{4′-hydroxy-2′-[(3-oxopiperazin-1-yl)methyl]biphenyl-3-yl}pyrido[2,3-d]pyrimidine-2,4(1H,3H)-dione], the IC50 in assay [2] is 0.0631 nM. The same measure, in the same setting: with `CN(CC(=O)N(C)C)Cc1cc(O)ccc1-c1cccc(-n2c(=O)n([C@H]3CC[C@@H](NCc4cn5cc(F)ccc5n4)CC3)c(=O)c3cc(F)cnc32)c1` [Example 378, N~2~-({3′-[6-fluoro-3-(cis-4-{[(6-fluoroimidazo[1,2-a]pyridin-2-yl)methyl]amino}cyclohexyl)-2,4-dioxo-3,4-dihydropyrido[2,3-d]pyrimidin-1(2H)-yl]-4-hydroxybiphenyl-2-yl}methyl)-N,N,N~2~-trimethylglycinamide] the figure was 0.316 nM.
